Results on 18 compounds are retold here after patent US20260138985A1, “Azepino-Indoles for the Treatment of Neurological and Psychiatric Disorders” (Terran Biosciences Inc., priority 2021, published 2026).

The target in data set [1] is T1, 5-HT2A receptor (Homo sapiens, UniProt P28223).
T1 construct: host or cells: unnamed cell lines
The data set is described as follows: Calcium mobilization assay, agonist format, 5-HT2A receptor. The data set is classed as cell-based. The conditions noted are these: read-out: 5-HT2A agonist Efficacy @ 10 µM. The procedure: (§1) Protocol—in vitro testing at select 5-hydroxytryptamine (5-HT; serotonin) receptors was conducted.
(§2) • 1. Cell lines were expanded from freezer stocks according to standard procedures. • 2. Cells were seeded in a total volume of 20 μL into black-walled, clear-bottom, Poly-D-lysine coated 384-well microplates and incubated at 37° C. for the appropriate time prior to testing.
(§3) • 1. Assays were performed in 1×Dye Loading Buffer consisting of 1× Dye, 1× Additive A and 2.5 mM Probenecid in HBSS/20 mM Hepes. Probenicid was prepared fresh. • 2. Cells were loaded with dye prior to testing. Media was aspirated from cells and replaced with 20 μL Dye Loading Buffer. • 3. Cells were incubated for 30-60 minutes at 37° C.
(§4) • 1. For agonist determination, cells were incubated with sample to induce response. • 2. After dye loading, cells were removed from the incubator and 10 μL HBSS/20 mM Hepes was added. 3× vehicle was included in the buffer when performing agonist dose curves to define • the EC80 for subsequent antagonist assays. Cells were incubated for 30 minutes at room temperature in the dark to equilibrate plate temperature. • 3. Intermediate dilution of sample stocks was performed to generate 4× sample in assay buffer. • 4. Compound agonist activity was measured on a FLIPR Tetra (MDS). Calcium mobilization was monitored for 2 minutes and 10 μL 4× sample in HBSS/20 mM Hepes was added to the cells 5 seconds into the assay.
(§5) • 1. Compound activity was analyzed using CBIS data analysis suite (ChemInnovation, CA). • 2. For agonist mode assays, percentage activity is calculated using the following formula: % Activity=100%×(mean RFU of test sample−mean RFU of vehicle control)/(mean MAX RFU control ligand −mean RFU of vehicle control). • 3. For positive allosteric mode assays, percentage modulation was calculated using the following formula: % Modulation=100%×((mean RFU of test sample−mean RFU of EC20 control)/(mean RFU of MAX control ligand −mean RFU of EC20 control)). • 4. For antagonist and negative allosteric modulation mode assays, percentage inhibition is calculated using the following formula: % Inhibition=100%×(1−(mean RFU of test sample−mean RFU of vehicle control)/(mean RFU of EC80 control−mean RFU of vehicle control)).
(§6) As discussed above, agonism, or partial agonism, of the 5-HT2A receptor (also known as positive allosteric modulation, or 5-HT2A modulation) is useful for the treatment of neurological and psychiatric disorders. For example, 5-HT2A agonism has been correlated with the promotion of neural plasticity (Ly et al., 2018). Agonism of the 5-HT2B receptor has been associated with unwanted cardiac valvulopathy side-effects, a form of cardio-toxicity (Rothman et al., Circulation. 2000, 102, 2836-2841; Fitzgerald et al., Molecular Pharmacology 2000, 57, 75-81). […] Antagonists of the 5-HT2C receptor are also useful for the treatment of neurological and psychiatric disorders (Kennett et al., Neuropharmacology 1997, 36, 609-620).

The target in data set [2] is T2, 5-HT2B receptor (Homo sapiens, UniProt P41595).
T2 construct: host or cells: unnamed cell lines
T2 sequence (P41595 whole entry): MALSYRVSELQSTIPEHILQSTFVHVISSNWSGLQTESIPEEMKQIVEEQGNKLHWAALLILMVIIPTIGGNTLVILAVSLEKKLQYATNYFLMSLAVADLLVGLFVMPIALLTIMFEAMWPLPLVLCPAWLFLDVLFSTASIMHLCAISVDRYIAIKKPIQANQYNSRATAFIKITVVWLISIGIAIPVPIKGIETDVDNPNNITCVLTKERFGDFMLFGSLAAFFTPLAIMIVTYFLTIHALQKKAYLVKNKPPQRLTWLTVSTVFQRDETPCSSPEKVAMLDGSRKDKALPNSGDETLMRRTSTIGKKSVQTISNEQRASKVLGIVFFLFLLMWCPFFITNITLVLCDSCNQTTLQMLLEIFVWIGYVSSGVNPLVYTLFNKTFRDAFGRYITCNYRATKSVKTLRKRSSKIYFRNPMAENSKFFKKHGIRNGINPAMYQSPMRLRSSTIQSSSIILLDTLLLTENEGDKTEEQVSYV
As to the kind of experiment: Calcium mobilization assay, agonist format, 5-HT2B receptor. It is filed as cell-based. The settings on record: read-out: 5-HT2B agonist Efficacy @ 5 µM. The procedure: as §1, §2, §3, §4, §5, §6
(Calcium assays in cells follow changes in intracellular calcium, usually with a dye or a luminescent sensor.)

Data set [3] deals with T3, 5-HT2C receptor (Homo sapiens, UniProt P28335).
T3 construct: host or cells: unnamed cell lines
T3 sequence (P28335 33-458): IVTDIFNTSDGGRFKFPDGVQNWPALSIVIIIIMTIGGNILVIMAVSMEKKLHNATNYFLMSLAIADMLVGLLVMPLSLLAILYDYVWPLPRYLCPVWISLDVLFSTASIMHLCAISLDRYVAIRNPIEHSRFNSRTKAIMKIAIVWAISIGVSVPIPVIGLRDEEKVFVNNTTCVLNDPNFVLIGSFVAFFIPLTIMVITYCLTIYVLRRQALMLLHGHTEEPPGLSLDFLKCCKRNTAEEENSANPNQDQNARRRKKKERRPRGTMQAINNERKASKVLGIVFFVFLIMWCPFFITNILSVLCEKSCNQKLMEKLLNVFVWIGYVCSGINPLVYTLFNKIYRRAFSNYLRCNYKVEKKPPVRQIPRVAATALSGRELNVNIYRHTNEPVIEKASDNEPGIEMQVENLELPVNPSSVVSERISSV
As to the kind of experiment: Calcium mobilization assay, antagonist format, 5-HT2C receptor. The data set is classed as cell-based. The arrangement: dose or concentration left out as unconfirmed. The procedure: as §1, §2, §3
• 1. For antagonist determination, cells were pre-incubated with sample followed by agonist challenge at the EC80 concentration. • 2. Intermediate dilution of sample stocks was performed to generate 3× sample in assay buffer. • 3. After dye loading, cells were removed from the incubator and […] 3× sample was added. Cells were incubated for 30 minutes at room temperature in the dark to equilibrate plate temperature. Vehicle concentration was 1%. • 4. Compound antagonist activity was measured on a FLIPR Tetra (MDS). Calcium mobilization was monitored for 2 minutes and 10 μL EC80 agonist in HBSS/20 mM Hepes was added to the cells 5 seconds into the assay.
as §5, §6

Data set [4] is described as follows: Metabolic stability in human liver microsomes. The data set is classed as in vitro ADME. The conditions noted are these: values marked * average of two experiments; for CLint scaled at 0.2 μM: pH 7.4, scaled from CLint(mic). The procedure:
Microsomal Assay: Human liver microsomes (20 mg/mL) are obtained from Xenotech, LLC (Lenexa, KS). β-nicotinamide adenine dinucleotide phosphate, reduced form (NADPH), magnesium chloride (MgCl2), and dimethyl sulfoxide (DMSO) are purchased from Sigma-Aldrich.
Determination of Metabolic Stability: 7.5 mM stock solutions of test compounds of the above structural formula (e.g., of an embodiment or aspect of embodiment thereof described herein), or pharmaceutically acceptable salt thereof, are prepared in DMSO. […] The diluted microsomes are added to wells of a 96-well deep-well polypropylene plate in triplicate. […] Reactions are initiated by addition of pre-warmed NADPH solution. The final reaction volume is 0.5 mL and contains 4.0 mg/mL human liver microsomes, 0.2 μM test compound, and 2 mM NADPH in 0.1 M potassium phosphate buffer, pH 7.4, and 3 mM MgCl2. The reaction mixtures are incubated at 37° C., and […] aliquots are removed at 0, 5, 10, 20, and 30 minutes and added to shallow-well 96-well plates which contain […] of ice-cold ACN (acetonitrile) with internal standard to stop the reactions. The plates are stored at 4° C. for 20 minutes after which […] of water is added to the wells of the plate before centrifugation to pellet precipitated proteins. Supernatants are transferred to another 96-well plate and analyzed for amounts of parent remaining by LC-MS/MS using an Applied Bio-systems API 4000 mass spectrometer. The same procedure is followed for the non-deuterated counterpart of the compound and the positive control, 7-ethoxycoumarin (1 μM). Testing is done in triplicate.
Data analysis: The in vitro Ti/s for test compounds are calculated from the slopes of the linear regression of % parent remaining (In) vs incubation time relationship.
[formula] • k=−[slope of linear regression of % parent remaining (In) vs incubation time] • The apparent intrinsic clearance is calculated using the following equation: […]
Data analysis is performed using Microsoft Excel Software.

T1 sequence (P28223 whole entry): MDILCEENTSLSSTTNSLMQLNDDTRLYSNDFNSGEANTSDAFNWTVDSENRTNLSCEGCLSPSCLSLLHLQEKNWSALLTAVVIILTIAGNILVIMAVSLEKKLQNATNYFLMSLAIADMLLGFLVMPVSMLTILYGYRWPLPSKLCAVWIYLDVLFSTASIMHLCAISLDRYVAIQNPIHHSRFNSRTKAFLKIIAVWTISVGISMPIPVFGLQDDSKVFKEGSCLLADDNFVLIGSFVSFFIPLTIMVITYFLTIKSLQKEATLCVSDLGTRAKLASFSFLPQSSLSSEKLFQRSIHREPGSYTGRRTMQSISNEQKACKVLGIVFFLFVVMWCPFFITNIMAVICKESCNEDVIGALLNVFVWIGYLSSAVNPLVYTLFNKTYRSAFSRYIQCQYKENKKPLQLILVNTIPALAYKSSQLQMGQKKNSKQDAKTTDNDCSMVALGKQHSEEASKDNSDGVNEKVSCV

In the case of `[2H]C([2H])([2H])N1CCc2[nH]c3cc(OC4CC4)ccc3c2CC1` [Compound 145, 8-cyclopropoxy-3-(^2H3)methyl-1H,2H,3H,4H,5H,6H-azepino[4,5-b]indole], the activation at 10 µM in data set [1] was found to be 5.8%. In data set [2], the activation at 5 µM was determined as 1.5%. Besides, the inhibition in data set [3] amounted to 101%.
On to `Cc1cc2c(cc1Cl)N(C(=O)Nc1ccc(Oc3cccnc3C)nc1)CC2` [SB242084, reference compound], for which, in data set [3], the inhibition worked out at 101%.
Regarding `c1cc2c3c([nH]c2cc1OC1CC1)CCN(C1CC1)CC3` [Compound 165, 8-cyclopropoxy-3-cyclopropyl-1,2,3,4,5,6-hexahydroazepino[4,5-b]indole], the activation at 10 µM in data set [1] was -2.7%. The activation at 5 µM in data set [2] is 0.9%. In addition, the inhibition in data set [3] came to 71.7%.
In the same order, the values of `CN1CCc2[nH]c3cc(S(F)(F)(F)(F)F)ccc3c2CC1` [Compound 109, pentafluoro-(3-methyl-2,4,5,6-tetrahydro-1H-azepino[4,5-b]indol-8-yl)-λ^6-sulfane] are 13.7%, 8.5% and 101%.
In the same order, the values of `COc1ccc2c3c([nH]c2c1)CCN(CCO)CC3` [Compound 140, 2-(8-methoxy-2,4,5,6-tetrahydro-1H-azepino[4,5-b]indol-3-yl)ethanol] are 48.1%, -0.9% and 93.8%.
Turning to `C[C@]12CC[C@H]3[C@@H](CCC4=CC(=O)CC[C@@]43C)[C@@H]1CC[C@@H]2O` [Testosterone, reference compound], in data set [4] (pH 7.4, intrinsic clearance, read-out: CLint(mic)), the microsomal CLint at 0.2 μM is 114 µL/min/mg. In data set [4], this compound came in with an intrinsic clearance (CLint scaled) at 0.2 μM of 103 mL/min/kg.
For `CN1CCc2[nH]c3cccc(S(F)(F)(F)(F)F)c3c2CC1` [Compound 110, pentafluoro-(3-methyl-2,4,5,6-tetrahydro-1H-azepino[4,5-b]indol-10-yl)-λ^6-sulfane], in data set [1], the activation at 10 µM came to 8.9%. For the same compound, in data set [2], the activation at 5 µM was 4%. For the same compound, in data set [3], the inhibition worked out at 103%.
In the same order, the values of `CN1CCc2[nH]c3cc4c(cc3c2CC1)OCC4` [Compound 166, 8-methyl-2,3,5,6,7,8,9,10-octahydroazepino[4,5-b]furo[2,3-f]indole] are 53.5%, 0.3% and 97.9%.
Consider `CN1CCc2[nH]c3cc(OC4CC4)ccc3c2CC1` [Compound 117, 8-(cyclopropoxy)-3-methyl-2,4,5,6-tetrahydro-1H-azepino[4,5-b]indole], for which, in data set [1], the activation at 10 µM is 10.4%. Further, in data set [2], the activation at 5 µM came out at 1.7%. The inhibition in data set [3] came out at 99.7%.
Take `CN1CCc2[nH]c3c4c(ccc3c2CC1)OCC4` [Compound 124, 8-methyl-1,2,6,7,8,9,10,11-octahydroazepino[4,5-b]furo[2,3-g]indole]: the activation at 10 µM in data set [1] stood at 83.8%. In data set [2], the activation at 5 µM was -0.7%. Besides, the inhibition in data set [3] was 93.1%.
Turning to `O=C(O)Cc1ccccc1Nc1c(Cl)cccc1Cl` [Diclofenac, reference compound], the “CLint(mic)” value in data set [4] (intrinsic clearance) was 201.9* μL/min/mg. In data set [4], the CLint scaled at 0.2 μM was 182 mL/min/kg.
In the case of `[2H]C([2H])([2H])Oc1ccc2c3c([nH]c2c1)CCN(C1CC1)CC3` [Compound 146, 3-cyclopropyl-8-(trideuteriomethoxy)-2,4,5,6-tetrahydro-1H-azepino[4,5-b]indole], in data set [1], the activation at 10 µM was 69.4%. The activation at 5 µM in data set [2] was 9%. The inhibition in data set [3] turned out to be 103%.
With `COc1ccc2c3c([nH]c2c1)CCN(C1CC1)CC3` [Compound 164, 3-cyclopropyl-8-methoxy-2,4,5,6-tetrahydro-1H-azepino[4,5-b]indole], the activation at 10 µM in data set [1] came out at 61%. The activation at 5 µM in data set [2] is 2.7%. Further, the inhibition in data set [3] was found to be 100%.
In the same order, the values of `CN1CCc2[nH]c3cccc(C#N)c3c2CC1` [Compound 138, 3-methyl-2,4,5,6-tetrahydro-1H-azepino[4,5-b]indole-10-carbonitrile] are 15.4%, -0.4% and 100%.
For the compound `CN1CCc2[nH]c3cc(C#N)ccc3c2CC1` [Compound 136, 3-methyl-2,4,5,6-tetrahydro-1H-azepino[4,5-b]indole-8-carbonitrile], in data set [1], the activation at 10 µM came to 41.8%. In addition, in data set [2], the activation at 5 µM is -1%. In addition, the inhibition in data set [3] was 98.6%.
In the same order, the values of `COc1ccc2c3c([nH]c2c1)CCN(CCS(C)(=O)=O)CC3` [Compound 143, 8-methoxy-3-(2-methylsulfonylethyl)-2,4,5,6-tetrahydro-1H-azepino[4,5-b]indole] are 42.1%, -0.1% and 97.2%.
On the same counts, the results for `COc1ccc2c3c([nH]c2c1)CCN(CCN(C)C)CC3` [Compound 144, 2-(8-methoxy-2,4,5,6-tetrahydro-1H-azepino[4,5-b]indol-3-yl)-N,N-dimethyl-ethanamine] are -0.7%, -0.5% and 3.1%.
For `CN1CCc2[nH]c3c4c(ccc3c2CC1)OCCC4` [Compound 122, 9-methyl-2,3,7,8,9,10,11,12-octahydro-1H-azepino[4,5-b]pyrano[2,3-g]indole], the activation at 10 µM in data set [1] came out at 54%. In addition, in data set [2], the activation at 5 µM is -0.8%. In addition, the inhibition in data set [3] amounted to 98.9%.

Broadly, the inhibition is the change of the read-out against control, counted positive when it falls. One may read the CLint scaled as the rate of metabolic loss divided by the concentration.
